pIC50: −log10 of the molar value. Read-outs that look alike come from different tables or passages of the source.
What was measured:
relapsed MM patients = conditions: combination treatment of AMD3100 and BTZ; cited from earlier work
[1] = in vivo; cited from earlier work
[2] = cited from earlier work
[3] = Drug entrapment (encapsulation) efficiency by ultracentrifugation and HPLC; assay type: physicochemical; conditions: drug loaded in liposomes; BTZ in lipid bilayer, Y27632 in hydrophilic core
Description: To evaluate loading efficiency, the liposomes were centrifuged at 38,000 rpm at 4° C. for 1 hour using a Beckman Optima™ XPN ultracentrifuge equipped with an SW 50.1 […] rotor (Beckman Coulter Inc., Fullerton, Calif., USA). The amount of BTZ and Y27632 in the supernatant was evaluated by HPLC as described in Example 9. The entrapment efficiency (EE) was calculated according to the following equation: EE=DT−DU/DT×100 where DT represents the total amount of drug added to the formulation during the preparation, and DU represents the amount of unincorporated drug found in the supernatant.

MM.1S cells [4] = assay: Viability of MM cells in co-culture with HUVECs (flow cytometry); assay type: cell-based; conditions: Homo sapiens; 24 hours, 0-50 nM, co-culture with HUVECs (FIG. 5B); read-out: IC50, killing of MM cells
Description: (§1) DiD-labeled HUVECs and DiO-labeled MM.1S cells were co-cultured overnight and treated with free BTZ (0-50 nM) or liposomal BTZ (0-50 nM-equivalent) for 24 hours, and the survival of the MMs and HUVECs was analyzed via flow cytometry. MM cells were gated as DiO+ cells and HUVECs were gated as DiD+ cells, and each cell population was counted and normalized against counting beads (Invitrogen), and survival was calculated as a percentage of vehicle-treated controls. The in vitro data were expressed as means±standard deviation.

HUVECs [5] = assay: Viability of HUVECs in co-culture with MM cells (flow cytometry); assay type: cell-based, human; conditions: 24 hours, 0-50 nM, co-culture with MM.1S (FIG. 5C)
Description: as §1

MM.1S-GFP-Luc cells = assay: MM tumor progression (BLI) and survival in MM.1S-GFP-Luc-bearing mice; assay type: in vivo; conditions: weekly intravenous, BTZ 1 mg/kg; for tumor progression / tumor growth (BLI): Y27632 2.5 mg/kg (FIGS. 6A-C, 8A-D); for survival of the mice: Y27632 2.5 mg/kg (FIGS. 6D-F, 9A-D)
Description: Mice were randomized into 12 groups of 7 mice each, which received weekly intravenous injections of: (i) saline, (ii) Y27632 as a free drug (2.5 mg/kg), (iii) BTZ as a free drug (1 mg/kg), (iv) combination of free BTZ and free Y27632, (v) empty non-targeted liposomes, (vi) non-targeted liposomal Y27632 (2.5 mg/kg-equivalent), (vii) non-targeted liposomal BTZ (1 mg/kg), (viii) non-targeted liposomal combination of BTZ and Y27632 in the same liposome (2.5 mg/kg and 1 mg/kg, respectively), (ix) empty PSGL-1-targeted liposomes, (x) PSGL-1-targeted liposomal Y27632 (2.5 mg/kg), (xi) PSGL-1-targeted liposomal BTZ (1 mg/kg), (xii) PSGL-1-targeted liposomal combination of BTZ and Y27632 in the same liposome (2.5 mg/kg and 1 mg/kg, respectively). Tumor progression was assessed weekly by BLI, weight was recorded twice a week, and survival and general health of mice were recorded daily. The in vivo data were expressed as means±standard deviation.

MM.1S cells [6] = assay: Trans-endothelial migration of MM cells in Boyden chamber with SDF-1; assay type: cell-based; conditions: 25 μM pre-treatment 3 hours, 30 nM SDF-1 (FIG. 4C)
Description: Trans-endothelial migration was by incubating HUVECs (5×10^3 cells) overnight in the upper chamber of a Boyden chamber (Corning), followed by an adhesion assay. MM.1S cells were pre-treated with (or without) free Y27632 (25 μM) or liposomal Y27632 (25 μM equivalent) for 3 hours. The pre-treated MM.1 S cells were then placed in the upper migration chamber in the presence or absence of 30 nM SDF-1 in the lower chamber. After 3 hours of incubation, MM.1 S cells that migrated to the lower chambers were counted by flow cytometry. The in vitro data were expressed as means±standard deviation.

HUVECs [7] = assay: Immunoblotting of adhesion signaling proteins (pSRC, pFAK) in HUVECs co-cultured with MM cells; assay type: cell-based, human; conditions: 25 μM, 6 hours (FIG. 4B)
Description: (§2) HUVECs and MM1.S cells were co-cultured overnight and treated with vehicle (control), free Y27632 (25 μM), free BTZ (5 nM), empty liposomes, liposomal Y27632 (25 μM), liposomal BTZ (5 nM) for 6 hours. MM cells were then separated from the HUVECs and both cell types were collected. The proteins were then extracted and subjected to immunoblotting for pSRC, pFAK, p21, pRB, cPARP, cCasp3, cCasp9, pAKT, pS6R, pERK, and α-Tubulin.
(§3) The immunoblotting protocol was performed as previously described below. Briefly, cells were lysed with 1× lysis buffer (Cell Signaling, #9803), the protein concentration was determined by Bradford assay (BioRad, Hercules, Calif.), and 50 μg of protein was loaded per lane. Electrophoresis was performed using NuPAGE 4%-12% Bis-Tris gels (Novex, Life Technologies, Grand Island, N.Y.) and transferred to a nitrocellulose membrane using iBlot (Invitrogen). Membranes were blocked with 5% non-fat milk in Tris-Buffered Saline/Tween20 (TBST) buffer and incubated with primary antibodies overnight at 4° C. The membranes were then washed with TBST for 30 minutes, incubated for 1 hour at room temperature with horseradish peroxidase (HRP)-conjugated secondary antibody, washed, and developed using Novex ECL Plus chemiluminescent Kit. Images were taken using a ChemiDoc XRS imaging system (Bio-Rad).

MM1.S cells = assay: Immunoblotting of adhesion signaling proteins (pSRC, pFAK) in MM cells co-cultured with HUVECs; assay type: cell-based; conditions: 25 μM, 6 hours (FIG. 4A)
Description: as §2, §3

Row | SMILES | overall response rate (relapsed MM patients) | pharmacokinetic (PK) half-life [1] | maximum tolerated dose ([2]; intravenous bolus on days 1, 4, 8, and 11 of a 3-week cycle (Vorhees 2003)) | maximum tolerated dose ([2]; intravenously once or twice weekly, patients with solid tumors (Orlowski 2003)) | maximal encapsulation efficiency (EE) [3] | pIC50 (MM.1S cells [4]) | survival of HUVECs (HUVECs [5]) | tumor progression / tumor growth (BLI) (MM.1S-GFP-Luc cells) | survival of the mice (MM.1S-GFP-Luc cells) | SDF-induced trans-endothelial migration of MM cells (MM.1S cells [6]) | adhesion signaling proteins (pSRC and pFAK) in HUVECs (HUVECs [7]) | adhesion signaling proteins (pSRC and pFAK) in MM cells (MM1.S cells)
1 | c1cc(CN2CCCNCCNCCCNCC2)ccc1CN1CCCNCCNCCCNCC1 [AMD3100] | 510% | 3 to 5 h | – | – | – | – | – | – | – | – | – | –
2 | CC(C)C[C@H](NC(=O)[C@H](Cc1ccccc1)NC(=O)c1cnccn1)B(O)O [BTZ, bortezomib] | – | 40 h | about 1.56 mg/m^2 | 1.3 mg/m^2 | 77% | ~8.00 | No effect | delayed significantly the tumor growth | significantly prolonged the survival | – | – | –
3 | C[C@@H](N)[C@H]1CC[C@H](C(=O)Nc2ccncc2)CC1 [Y27632] | – | – | – | – | 55% | – | – | did not affect the tumor growth | did not extend the survival | reversed | decreased adhesion signaling | decreased adhesion signaling

From US20220387460A1, “LIPOSOME COMPOSITIONS AND METHODS OF TREATMENT TARGETED TO TUMOR ENDOTHELIUM” (Washington University, priority 2019, published 2022)
